# Experimental data reported in patent US20150133397A1, “METHOD OF REDUCING FASTING INSULIN LEVELS IN MTHFR GENE DEFICIENT SUBJECTS WITH NORMAL TO SLIGHTLY ELEVATED HEMOGLOBIN A1C” (priority 2013, published 2015).
# Where two headings read alike, the source gives them in different places.
# Legend:
# [1] = MTHFR677 tt, retested 6 months later
# Excerpt: (§1) The test subject was given a fasting insulin test.
# [2] = MTHFR677 tt, retested 6 months later; remark: listed apart in the source
# Excerpt: The HbA1C test is a common blood test used to diagnose type 1 and type 2 diabetes and then to gauge how well the subject is managing diabetes or the subjects risk of becoming diabetic. The A1C test result reflects the subjects average blood sugar level for the past two to three months. Specifically, the A1C test measures what percentage of the subject's hemoglobin is coated with sugar (glycated). […] According to the American Diabetes Association guidelines a HbA1C of between 4 and 5.6% falls within normal parameters, HbA1C between 5.7 and 6.4% are considered slightly elevated and indicate a prediabetic state as where HbA1C of greater than 6.5% is considered diabetic.
# as §1
structure (smiles),measurement,setting,value
CN1c2c([nH]c(N)nc2=O)NC[C@@H]1CNc1ccc(C(=O)N[C@@H](CCC(=O)O)C(=O)O)cc1 [L-methylfolate],fasting insulin level,"[1]; Example 1: person, 3 mgs L-methylfolate with 2 mgs methyl B12 once daily, before treatment 40 μU/ml",9 μU/ml
same,fasting insulin level,"[1]; Example 2: person, 15 mgs L-methylfolate with 2 mgs methyl B12 once daily, before treatment 100 μU/ml",11 μU/ml
same,HbA1C,"[2]; Example 1: person, 3 mgs L-methylfolate with 2 mgs methyl B12 once daily, before treatment 4.9%",4.9%
same,HbA1C,"[2]; Example 2: person, 15 mgs L-methylfolate with 2 mgs methyl B12 once daily, before treatment 5.3%",5.3%
